Columns and labels:
[1] = system: transferrin receptor 1 (TFR1); assay: TFR1 protein expression, immunoblot; assay type: cell-based, human; details: 25 and 50 μM for 4 h, erastin 24 h
Experimental: (§1) FIG. 14A, FIG. 14B, FIG. 14C, and FIG. 14D show: FIG. 14A and FIG. 14B pretreatment of AST (25 and 50 μM) for 4 h followed by 24 h treatment with erastin ([…]) immunoblots for indicated proteins of lysates derived from FA fibroblasts. FIG. 14C and FIG. 14D, relative abundance of TFR1 and FTH1 proteins normalized to β-actin loading control. Results are the means+SEM of n=3 for all concentrations. *P<0.05, **P<0.005, comparisons with the erastin group. Group comparisons are determined by a one-way analysis of variance (ANOVA) with Dunnet's correction post-hoc test using GraphPad Prism 8. Samples were run on the same gel for SDS-Page gel electrophoresis in nonconsecutive lanes;
(§2) To test this hypothesis, we studied the effect of RSSH on TFR1 and FTH1 expression levels. We anticipated that the impacts of RSSH would result in downregulation of TFR1 and upregulation of FTH1. […] Feng et al., 2020; Park and Chung, 2019.

FA fibroblasts = assay: Lipid peroxidation, C11-BODIPY (581/591) flow cytometry; assay type: cell-based, human; details: 50 μM pre-treatment for 4 h, erastin 10 μM
Description: Blue represents DMSO-treated cells, red represents erastin treated cells, and green represents reduction of lipid peroxidation in live cells pretreated with AST;
The reduction of FXN levels in FA increases mitochondrial iron accumulation, ultimately leading to iron-dependent accumulation of lipid ROS and subsequent lipid peroxidation. […] As has been reported previously, we employed C11-BODIPY (581/591) to monitor a shift in fluorescence of oxidized C11-BODIPY. […] Dixon et al., 2012; Martinez et al., 2020.

H9c2 cardiac myoblasts = assay: Intracellular sulfane sulfur detection using the SSP4 probe; assay type: cell-based, rat; set-up: SSP4 fluorescence signal (intracellular sulfane sulfur): dose or concentration left out as unconfirmed
Experimental: Increased intracellular RSSH levels resulting from incubation with 1a utilizing SSP4, a fluorescent probe that has been used to detect of intracellular sulfane sulfur, Chen et al., 2013; Marutani et al., 2014, also was tested. Sulfane sulfur refers to a sulfur atom with six valence electrons and no charge. Biologically important sulfane sulfur compounds include RSSH, polysulfides (RSnSH or RSSnSR, n≥1), inorganic polysulfides (HSSnH, n≥1), and elemental sulfur (S8). Briefly, cells were incubated with SSP4 in the presence of cetrimonium bromide (CTAB) for 20 min and then washed with serum-free media before 1a is introduced. A significant increase of the SSP4 fluorescence signal was not observed following treatment with […] 1a due to the low amount of RSSH released at this concentration falling below the detection limit of the probe (FIG. 6). […] Since the SSP4 probe is known to react with a variety of sulfane sulfur species, the fluorescence signal observed upon treatment of 1a is likely due to RSSH and/or other sulfane sulfur species that might be present in the equilibrium with RSSH (e.g., Scheme 1-5). Thus, it is thought that the cytoprotective effects of 1a are attributed to increasing sulfane sulfur pools within the cultured cells.
Cells were seeded at a density of 1.5×10^4 cells/well. […] The fluorescence readings were obtained at 482Ex/515Em.

[2] = pH 7.4 solution at 37° C.; cited from earlier work
[3] = Kinetics of RSSH release (precursor hydrolysis) in the presence of MMTS, monitored by HPLC; assay type: physicochemical
Experimental: After confirming RSSH generation from 1a, the kinetics of RSSH release from alkylsulfenyl thiocarbonates in the presence of MMTS was analyzed by high-performance liquid chromatography (HPLC). Due to the lack of a chromophore in MMTS adduct 7, the decay of the RSSH precursor and formation of the corresponding phenol byproduct was monitored. First-order rate constants were obtained by plotting the precursor decay and phenol byproduct formation as a function of time. […] The observation of similar rate constants for both 1a decay and phenol (4a) formation indicates a rapid reaction of relased RSSH with MMTS, and that these observed rate constants indicate the RSSH release rate. Importantly, 92% of the byproduct phenol 4a is observed. In addition, the effect of pH on the kinetics of RSSH release also was examined.
The RSSH release kinetics for precursors containing a variety of para-substituted phenols were then compared. It was hoped to decrease the rate of RSSH release through the introduction of electron-donating groups. Indeed, a small decrease in the RSSH release rate from 1b, equipped with a 4-Me substituent (137±4 min) (Table 1) was observed.
MMTS (100 μL, 50 mM) was added in pH 7.4 phosphate buffer saline (4.85 mL) containing the DTPA (100 μM) as metal chelator. This solution was preincubated for 10 min at 37° C. and then precursor 1a-f or 8 (50 μL, 10 mM) were independently added into the mixture (total volume=5 mL). The resulting solution was incubated at 37° C. At different time points, an aliquot of 300 μL was taken and quenched with 300 μL 0.1% formic acid solution. These samples were stored at 0° C. until HPLC analysis was performed. The sample (20 μL) was injected into a high-performance liquid chromatography (HPLC) equipped with Phenomenex C-18 reverse phase column (250 mm×4.6 mm, 5 μm). HPLC Method: mobile phase A (H2O) and mobile phase B (ACN), flow rate: 1 mL/min, run time: 21 min, the gradient elution method: 10% to 70% B from 0 to 10 min, 70% to 90% B from 10 to 21 min. The elution was monitored by a UV detector at 240 and 275 nm. First-order rate constants were obtained by plotting the precursor decay and phenol by-product formation as a function of time.

[4] = system: ferritin heavy chain 1 (FTH1); assay: FTH1 protein expression, immunoblot; assay type: cell-based, human; details: 25 and 50 μM for 4 h, erastin 24 h
Experimental: as §1, §2

[5] = 10 equiv MMTS, PBS pH 7.4, 100 mM

TFR1 protein level [1]: three-fold decrease
t1/2 of hydrolysis ([3]; pH 6.0): 1599 ± 48 min
t1/2 of hydrolysis ([3]; pH 8.0): 37 ± 3 min
Structure (SMILES): COC(=O)C(NC(C)=O)C(C)(C)SSC(=O)Oc1ccccc1 (stereo not shown) [Precursor 1a, Methyl 2-acetamido-3-methyl-3-((phenoxycarbonyl)disulfaneyl)butanoate]
erastin-induced lipid peroxide levels (FA fibroblasts): attenuated erastin-induced lipid peroxide levels
SSP4 fluorescence signal (intracellular sulfane sulfur) (H9c2 cardiac myoblasts): not observed
SSP4 fluorescence intensity (intracellular sulfane sulfur) (H9c2 cardiac myoblasts; 100 and 200 mM, over a period of 3 h): Dose-dependent increases in fluorescence intensity
half-life [2]: 129 min
first-order rate constant k, disappearance of precursor [3, 5]: 0.00539 min⁻¹
first-order rate constant k, formation of phenol [3, 5]: 0.00533 min⁻¹
FTH1 protein level [4]: two-fold increase

— patent publication US20250282720A1, “ALKYLSULFENYL THIOCARBONATES: PRECURSORS TO HYDROPERSULFIDES POTENTLY ATTENUATE OXIDATIVE STRESS” (The Johns Hopkins University, priority 2021, published 2025)
